Publication PMC11088696, “An integrated multi-omics approach reveals polymethoxylated flavonoid biosynthesis in Citrus reticulata cv. Chachiensis” (Nature Communications, 2024)

Legend:
CcOMT1 [1] = test system: T1, CcOMT1; experiment: HPLC of methylated product, Michaelis-Menten non-linear fit; type: biochemical, Citrus reticulata; conditions: 5 mM SAM, pH 6.0 phosphate, 50 °C, 2 h, 1 mM DTT
T1 construct: full-length cDNA from CRC leaf cDNA library, BamHI/XhoI in pET-28a(+), E. coli BL21(DE3), Ni-NTA purified; ORF printed 1080 bp but 366 aa printed (inconsistent); primers encode N-terminus MGSTSSE, C-terminus MEFLKSA
Description: HPLC of methylated product, Michaelis-Menten non-linear fit on CcOMT1 | To determine the kinetic parameters of CcOMT1, the Michaelis–Menten constant (Km) was determined

CcOMT1 [2] = test system: T1, CcOMT1; experiment: as above; type: biochemical, Citrus reticulata; conditions: 5 mM SAM, pH 6.0 phosphate, 50 °C, 2 h, 1 mM DTT; remark: listed apart in the source
Excerpt: HPLC of methylated product, Michaelis-Menten non-linear fit on CcOMT1 | For kinetic studies of CcOMT1 and its variant CcOMT1-W141Y toward natsudaidain

- Km (CcOMT1 [1]): 25.4 ± 11.3 µM
- Km (CcOMT1 [2]): 20.8 ± 7.6 µM
Compound: COc1ccc(-c2oc3c(OC)c(OC)c(OC)c(OC)c3c(=O)c2O)cc1OC [compound 1, natsudaidain]
